Consider 30 molecules from ChEMBL document CHEMBL5126515, “Progress of thrombus formation and research on the structure-activity relationship for antithrombotic drugs” (Eur J Med Chem, 2022).

Converted amounts (≈) assume the structure as drawn.

The nature of assay [1]: Antiplatelet activity in platelet (unknown origin) assessed as inhibition of ADP-induced platelet aggregation relative to control. To be noted: for IC50: platelet. In kind it is functional, cell-based.
Assay [2] can be described thus: Antiplatelet aggregation activity in rabbit platelet assessed as reduction in ADP-induced platelet aggregation. In kind it is functional, cell-based. The settings on record: Oryctolagus cuniculus.
In assay [3] the test system is Plasma. Kind of assay: Anticoagulant activity in mouse plasma assessed inhibition of thrombin-induced platelet aggregation. In kind it is functional, cell-free.
For assay [4], the species on record is Rattus norvegicus. The assay can be described thus: Antiplatelet aggregration activity in arteriovenous bypass thrombosis rat model assessed as aggregation inhibition rate relative to control. In kind it is functional.
For assay [5], the species on record is Rattus norvegicus. The assay can be described thus: Antithrombotic activity in arteriovenous bypass thrombo-genesis rat model assessed as quality of thrombosis. In kind it is functional.
In assay [6] the test system is Plasma. Kind of assay: Antithrombotic activity in rat plasma. In kind it is functional.
The test system of another assay is Plasma (Mus musculus). The assay can be described thus: Anticoagulant activity in mouse plasma assessed as prothrombin time.
Assay [7] has as its system Plasma. The assay can be described thus: Anticoagulant activity in rabbit plasma assessed as prothrombin time. In kind it is functional, Oryctolagus cuniculus.
Assay [8] concerns Plasma. Kind of assay: Anticoagulant activity in rabbit plasma assessed as thrombin time. The format is functional, Oryctolagus cuniculus.
The test system of assay [9] is Plasma. Kind of assay: Anticoagulant activity in rabbit plasma assessed as activated partial thromboplastin time. In kind it is functional, Oryctolagus cuniculus.
Assay [10] concerns Plasma. The assay can be described thus: Antiplatelet activity in rabbit plasma assessed as inhibition of arachidonic acid induced platelet aggregation. In kind it is functional, cell-free. The settings on record: Oryctolagus cuniculus.
The test system of assay [11] is Plasma. Kind of assay: Antithrombotic activity in human plasma assessed as thrombin time. In kind it is functional.
In the next assay the target is Prothrombin (Homo sapiens, UniProt P00734). The assay can be described thus: Inhibition of thrombin in human plasma. The format is cell-free.
Assay [12] has as its system Plasma. The assay can be described thus: Antiplatelet aggregation activity in rabbit plasma incubated for 5 mins. The format is functional, cell-free. The settings on record: Oryctolagus cuniculus.
In the next assay the test system is Erythrocyte. Kind of assay: Anticoagulant activity in human RBC assessed as decrease in epinephrine induced platelet aggregation by measuring increased clotting time relative to control. The format is functional.
A short description of assay [13]: Antiplatelet activity in human platelet. The format is functional, cell-based.
The next assay addresses P2Y purinoceptor 1 (Homo sapiens, UniProt P47900). Kind of assay: Antagonist activity at P2Y1 receptor (unknown origin). In kind it is functional.
A further assay concerns Platelet. Kind of assay: Potency index ratio of IC50 for CCI-17810 to IC50 test compound against antiplatelet activity in platelet (unknown origin). The format is functional.
Assay [14] deals with Plasma. The assay can be described thus: Antithrombotic activity in mouse plasma assessed as prothrombin time administered IV.
Assay [15] deals with Plasma. The assay can be described thus: Antithrombotic activity in mouse plasma assessed as clotting time administered IV.
Assay [16] concerns the target Coagulation factor X (Mus musculus, UniProt O88947). Kind of assay: Inhibition of mouse FXa.
A short description of assay [17]: Antithrombotic activity in fresh platelet rich plasma. The format is functional, cell-based.
For assay [18], the target named is Coagulation factor X (Homo sapiens, UniProt P00742). Kind of assay: Binding affinity to FXa (unknown origin).
Coagulation factor X (Homo sapiens, UniProt P00742), sequence (P00742 41-179 limits assumed): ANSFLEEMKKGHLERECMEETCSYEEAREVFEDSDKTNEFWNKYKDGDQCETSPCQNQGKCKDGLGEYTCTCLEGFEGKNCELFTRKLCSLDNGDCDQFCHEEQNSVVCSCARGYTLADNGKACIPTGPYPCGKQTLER
Coagulation factor X (Homo sapiens, UniProt P00742), sequence (P00742 235-488 limits assumed): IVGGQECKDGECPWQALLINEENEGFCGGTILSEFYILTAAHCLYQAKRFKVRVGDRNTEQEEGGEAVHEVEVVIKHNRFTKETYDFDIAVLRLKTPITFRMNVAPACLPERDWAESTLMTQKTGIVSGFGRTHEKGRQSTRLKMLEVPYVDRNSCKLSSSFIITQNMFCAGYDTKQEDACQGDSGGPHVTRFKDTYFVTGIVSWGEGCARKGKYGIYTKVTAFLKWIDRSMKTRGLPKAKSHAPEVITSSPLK

Coagulation factor X (Mus musculus, UniProt O88947), sequence (O88947 41-180 limits assumed): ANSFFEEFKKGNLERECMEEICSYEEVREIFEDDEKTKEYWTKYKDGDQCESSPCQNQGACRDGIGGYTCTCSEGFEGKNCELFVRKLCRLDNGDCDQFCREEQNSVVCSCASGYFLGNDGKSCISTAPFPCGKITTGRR
Coagulation factor X (Mus musculus, UniProt O88947), sequence (O88947 232-481 limits assumed): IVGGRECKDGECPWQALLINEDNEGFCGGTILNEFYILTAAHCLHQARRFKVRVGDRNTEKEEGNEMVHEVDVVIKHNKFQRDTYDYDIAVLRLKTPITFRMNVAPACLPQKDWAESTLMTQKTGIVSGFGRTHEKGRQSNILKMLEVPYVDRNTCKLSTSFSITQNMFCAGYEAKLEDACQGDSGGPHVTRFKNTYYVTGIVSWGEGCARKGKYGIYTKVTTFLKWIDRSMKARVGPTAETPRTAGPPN
P2Y purinoceptor 1, sequence (P47900 whole entry): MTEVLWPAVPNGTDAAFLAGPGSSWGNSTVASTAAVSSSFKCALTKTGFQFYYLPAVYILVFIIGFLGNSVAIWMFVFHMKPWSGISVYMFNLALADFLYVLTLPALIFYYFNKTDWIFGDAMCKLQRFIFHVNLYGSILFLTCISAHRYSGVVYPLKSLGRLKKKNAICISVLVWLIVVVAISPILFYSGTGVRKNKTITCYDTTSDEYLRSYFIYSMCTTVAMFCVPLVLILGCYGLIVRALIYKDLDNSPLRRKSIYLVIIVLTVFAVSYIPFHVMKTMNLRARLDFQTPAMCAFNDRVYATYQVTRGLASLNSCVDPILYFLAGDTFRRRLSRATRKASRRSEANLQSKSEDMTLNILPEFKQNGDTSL

In the case of `CC(C)[C@](O)(C(=O)OCC1=CCN2CC[C@@H](O)[C@@H]12)[C@H](C)O`, the IC50 in [1] stood at 490 nM; in [2] it was 12500 nM.
Molecule `CCOC(=O)CCN(C(=O)c1ccc2c(c1)nc1n2CCN(CC(=O)OCC)C1Cc1ccc(/C(N)=N/CC(=O)OCC)cc1)c1ccccc1` (stereo unspecified) registered a concentration for half-maximal inhibition (IC50) with Plasma [3] of 320 nM.
With `CC(=O)Oc1ccccc1C(=O)O` [ASPIRIN], in the assay filed under Rattus norvegicus [4], the “inhibition (INH)” value is on record as 14.7%. Moreover, the Activity in the assay listed under Rattus norvegicus [5] was determined as 10.5 mg.
In the assay on Plasma [6], `N#Cc1ccc(S[C@H]2C[C@@H](O)[C@H](O)CS2)cc1` had an ED50 of 7 mg/kg.
For `COC(=O)c1ccccc1OCCOc1ccc2c(C)cc(=O)oc2c1`, the Time in the assay with Plasma (Mus musculus) worked out at 8.44 s.
Consider `COc1cc(OC)c2c(=O)c(O)c(-c3ccc(O)c(O)c3)oc2c1`, for which the figures for the Time in the assay on Plasma [7], with Plasma [8] and with Plasma [9] were 67.6 s, 21.8 s and 6.9 s, respectively.
In the case of `Cc1ccc2c(c1)NC(CC(=O)c1ccccc1)C(=O)O2` (stereo unspecified), the IC50 in the assay with Plasma [10] came to 18 µg/mL (≈ 63.8 µM).
For `CC1(C)[C@@H](OC(=O)c2ccccc2C(=O)O)CC[C@]2(C)[C@H]3C(=O)C=C4[C@@H]5C[C@@](C)(C(=O)O)CC[C@]5(C)CC[C@@]4(C)[C@]3(C)CC[C@@H]12`, the Time in the assay on Plasma [11] is 118.3 s. This molecule also returned an IC50 on Prothrombin of 114000 nM.
Turning to `COc1ccc(-c2oc3cc(O)cc(O)c3c(=O)c2O)cc1OC`, the Time in the assay on Plasma [7] is given as 58.7 s; in the assay with Plasma [8], 9.9 s; in the assay with Plasma [9], 5.8 s.
`CCN1C(=O)COc2cc(NC(=O)CCCl)ccc21` had an IC50 in the assay with Plasma [12] of 8940 nM.
Consider `Cn1c(-c2ccc(Br)s2)nc2cc(-c3nnc(-c4cc(-c5cc(F)cc(F)c5)nc5ccccc45)o3)ccc21`, for which, in the assay with Erythrocyte, the “inhibition (INH)” value is given as 93.4%.
With `CCCCCCCCN1CCN(c2ccc(C3=NNC(=O)CC3)cc2)CC1`, in assay [2], the concentration for half-maximal inhibition (IC50) was found to be 2500 nM.
Regarding `CN(C)C(=O)c1ccc(NC(=O)c2ccc(-n3ccccc3=O)cc2)c(NC(=O)c2ccc(Cl)c(Cl)c2)c1`, the Time in the assay with Plasma [7] turned out to be 9.5 s.
For `COc1cc(/C=C/C(=O)O)ccc1OCCN1CCOCC1`, in [1], the “inhibition (INH)” value is 91.4%.
On to `CC1CC(=O)NN=C1c1ccc(NC(=O)Cn2ccnc2)cc1` (stereo unspecified), for which the IC50 in assay [13] is 60 nM.
Take `CC(=O)Oc1ccccc1C(=O)Oc1ccc(/C=C/C(=O)OCCCCO[N+](=O)[O-])cc1`: the “inhibition (INH)” value in the assay listed under Rattus norvegicus [4] was 43.9%.
Turning to `CNc1nc(Cl)nc2c1ncn2CC(COP(=O)(O)O)COP(=O)(O)O`, the IC50 on P2Y purinoceptor 1 came out at 480 nM.
As for `CCCN(CCC)CC(=O)N1CCN(c2ccc(C3=NNC(=O)CC3C)cc2)CC1` (stereo unspecified), in [1], the IC50 stood at 8 nM. The “Ratio IC50” value in the assay on Platelet is 60.
On to `CC(=O)CC(c1ccccc1)c1c(O)c2ccccc2oc1=O` (stereo unspecified) [WARFARIN], for which the Time was found to be 42.3 s in the assay with Plasma [14], 23.2 s in the assay with Plasma [15] and 7.97 s in the assay on Plasma (Mus musculus).
For `COc1ccc(-n2nc(C(N)=O)c3c2C(=O)N(c2ccc(N4CCCCC4=O)cc2)CC3)cc1` [APIXABAN], in the assay on Plasma [7], the Time is listed as 10 s.
With `COc1cc(/C=C/C(=O)OCCOCCO[N+](=O)[O-])ccc1OC(=O)c1ccccc1OC(C)=O`, the “inhibition (INH)” value in the assay filed under Rattus norvegicus [4] came out at 16%.
`COc1cc(/C=C/C(=O)OCc2c(-c3ccccc3)no[n+]2[O-])ccc1OC(=O)c1ccccc1OC(C)=O`: the “inhibition (INH)” value in the assay filed under Rattus norvegicus [4] turned out to be 12.1%.
`CC(=N)N1CCC(Oc2ccc(N(Cc3ccc4ccc(C(=N)N)cc4c3)S(=O)(=O)CC(=O)O)cc2)CC1` [YM-60828] yielded a half-maximal inhibitory concentration (IC50) on Coagulation factor X [16] of 6 nM.
`O=C(O)CC1CCCCCCCCCNC(=O)OCOC(=O)C(Cc2ccccc2)NC1=O` (stereo unspecified): in assay [17], it took 400 nM to reach half-maximal inhibition (IC50).
`COc1ccc(C(=O)Nc2ccccc2NC(=O)c2ccc(OC)cc2)cc1`: the Ki at Coagulation factor X [18] was 1000 nM.
For the molecule `CC(=N)N1CCC(Oc2ccc3c(c2)C(=O)NS(=O)(=O)N3CC(=O)Nc2cccc(C(=N)N)c2)CC1`, the 50% inhibitory concentration (IC50) at Coagulation factor X [16] worked out at 2.5 nM.
`CCOC(=O)CCN(C(=O)c1ccc2c(c1)nc1n2CCN(CC(=O)OC(C)(C)C)C1Cc1ccc(/C(N)=N/CC(=O)OC(C)(C)C)cc1)c1ccccc1` (stereo unspecified) registered an IC50 with Plasma [3] of 110 nM.
The molecule `CC(=N)N1CCC(Oc2ccc3c(c2)C(=O)NS(=O)(=O)N3Cc2ccc3ccc(C(=N)N)cc3c2)CC1` registered a 50% inhibitory concentration (IC50) against Coagulation factor X [16] of 2.1 nM.
Consider `O=C(Nc1ccc2oc(=O)ccc2c1)c1ccc(-c2noc(CCl)n2)cc1`, for which the Time with Plasma [14] is recorded as 42.3 s; with Plasma [15], 17.7 s.
With `CCCCCOC(=O)C/N=C(\N)c1ccc(CC2c3nc4cc(C(=O)N(CCC(=O)OCC)c5ccccc5)ccc4n3CCN2CC(=O)OCCCCC)cc1` (stereo unspecified), the midpoint of inhibition in the assay with Plasma [3], the IC50, lay at 570 nM.

Broadly, the IC50 is the concentration at which inhibition is half-maximal. As usually defined, the ED50 is the midpoint of the dose-response relation. As usually defined, the Ki is the dissociation constant of the complex between target and ligand, obtained from inhibition or displacement. Lower therefore signals higher affinity.
